Like-named read-outs stand apart in the source and are kept apart here.
Tests used:
[1] = Fluorescence spectra, absorbance and quantum yield (spectrofluorometer, integration sphere); format: physicochemical; details: for Shifting (emission shifting with excitation wavelength): CFD dyes; for Φ (quantum yield) / λem (maximum emission wavelength) / λex (maximum excitation wavelength) / ϵ (extinction coefficiency): Table III
[2] = pH dependence of fluorescence / pH sensing; format: physicochemical
Method: Absorbance Spectra were recorded on Tecan Infinite M200 Pro UV-vis spectroscopy, and fluorescence spectra were recorded on Horiba FluoroMax-4 fluorospectroscopy at concentrations below 0.1 O.D. unless otherwise indicated. Quantum Yields were measured on the Quantum φ Integrating Sphere accessory to the FluoroMax-4, while lifetime measurements were determined through the Time-Correlation Single Photon Counting (TCSPC) accessory to the FluroMax-4. TCSPC was utilized in conjunction with NanoLED pulsed diode light source with peak excitation wavelength at 352 nm and at 10,000 counts peak preset. Emission was collected at the fluorescence λmax, unless otherwise indicated. For all pH-dependence experiments, sample pH was adjusted with sulfuric acid or sodium hydroxide. For all chloride-dependent quenching experiments, magnesium chloride hexahydrate (Sigma Aldrich) was used.
pH Dependence of CA-Cys Fluorescence. Of all solvent and environmental factors that affect fluorescence, CA-Cys appeared to display the greatest sensitivity to changes in pH. […] From a detailed analysis of FIG. 13, four correlations were observed. Fluorescence properties of CA-Cys were invariable from high basicity to a pH of 4.84, from which the excitation λmax began to red-shift from 350 nm, emission λmax began to red-shift from 418 nm, maximum fluorescence intensity began to decrease, and quantum yield began to decrease. As acidity was increased, all four trends continued until pH 2.44, from which the excitation λmax plateaued at 365 nm, emission plateaued at 445 nm, and fluorescence intensity and quantum yield both experienced a short local plateau. Similarly, Stokes shift increased from 67 nm to 80 nm in high acidity. Lastly, absorbance λmax shifted similarly to that of the maximum excitation, while absorbance intensities remained relatively constant. […] All of these patterns were reminiscent of a pH-dependent equilibrium, thus the predominant mechanism of intensity quenching and bathochromic shifts was hypothesized to be attributed to changes in protolytic equilibria. The noticeably linear quenching of intensities past pH 1.63 is discussed with respect to lifetime analysis herein below.
There is a predictable, linear increase in intensity from pH 3 to 4.5. Furthermore, emission collected at a fixed 445 nm is shown in FIG. 15 to be an isobestic point where intensities are independent of pH (up to pH 1), which should greatly improve the functionality of CA-Cys as a pH sensor. In other words, utilizing 445 nm as a dual-wavelength reference point allows for background subtraction and normalization with respect to absorbance or concentration. […] Furthermore, I418 nm/I445 nm increases linearly in the region of pH 3 to 4.5 for accurate determination of pH within this region, plotted and fitted with an R^2 value of 0.982. To sum up, I418 nm/I445 nm values near 1.6 indicate pH above 4.5, values below 0.7 indicate highly acidic environments below pH 3, while any intermediate I418 nm/I445 nm values can determine the exact pH with good accuracy. It is important to note that CA-Cys fluorescence is in accordance with Kasha's rule, i.e. fluorescence occurs from the lowest excited state, S1→S0, thus the emission λmax is independent of the excitation wavelength, and a fluorescence excitation scan at a fixed emission of 418 nm or 445 nm would provide the maximum fluorescence intensity for that emission wavelength. Also of importance is the reliable range of the isobestic point, which is broken at high acidities (noticeably below pH 1) due to dynamic quenching effects.

[3] = Dianion protolytic state (physiological pH)

SMILES: CC(C(=O)O)N1C(=O)C=C(C(=O)O)CC1=O (centres unmarked) [CA-Ala]
- Shifting (emission shifting with excitation wavelength) [1]: Yes
- Φ (quantum yield) [1]: 21.2%
- λem (maximum emission wavelength) [1]: 430 nm
- λex (maximum excitation wavelength) [1]: 361 nm
- ϵ (extinction coefficiency) [1]: 79 M⁻¹ cm⁻¹
- band-shift effect ([1]; in acetone (ε=20.7)): moderate
- band-shift effect ([1]; in dichloromethane (ε=8.93)): minimal
- band-shift effect ([1]; in water (ε=80.1)): strongest
- Max. Em. Wavelength ([1]; representative CFDs, Table I): 430 nm
- Max. Ex. Wavelength ([1]; representative CFDs, Table I): 361 nm
- Quantum Yield ([1]; representative CFDs, Table I): 21.2%
- pH of sharp colorimetric transition [2]: 9.75

SMILES: O=C(O)c1cc2n(c(=O)c1)C(C(=O)O)CS2 (centres unmarked) [CA-Cys]
- Quantum Yield [1]: ≤ 81%
- extinction coefficient [1]: 8640 M⁻¹ cm⁻¹
- Abs. Max ([1]; Anion protolytic state): 354 nm
- Em. max ([1]; Anion protolytic state): 440 nm
- Exc. max ([1]; Anion protolytic state): 360 nm
- Stokes shift ([1]; Anion protolytic state): 80 nm
- Φ ([1]; Anion protolytic state): 67.24%
- ε ([1]; Anion protolytic state): 7454 M⁻¹ cm⁻¹
- Shifting (emission shifting with excitation wavelength) [1]: no fluorescence band shifting was observed and No
- Abs. Max ([1]; Dianion protolytic state): 346 nm
- Em. max ([1]; Dianion protolytic state): 418 nm
- Exc. max ([1]; Dianion protolytic state): 350 nm
- Stokes shift [1, 3]: 67 nm
- Φ [1, 3]: 81.20%
- ε [1, 3]: ~8640 M⁻¹ cm⁻¹
- Abs. Max ([1]; Neutral protolytic state): 362 nm
- Em. max ([1]; Neutral protolytic state): 445 nm
- Exc. max ([1]; Neutral protolytic state): 366 nm
- Stokes shift ([1]; Neutral protolytic state): 80 nm
- Φ ([1]; Neutral protolytic state): Quenched
- ε ([1]; Neutral protolytic state): ~8300 M⁻¹ cm⁻¹
- Φ (quantum yield) [1]: 81.4%
- λem (maximum emission wavelength) [1]: 445 nm
- λex (maximum excitation wavelength) [1]: 364 nm
- ϵ (extinction coefficiency) [1]: 8640 M⁻¹ cm⁻¹
- quenching in organic solvents compared to water ([1]; dioxane, acetone, ethanol, isopropanol, DMSO): minimal quenching
- Max. Em. Wavelength ([1]; representative CFDs, Table I): 445 nm
- Max. Ex. Wavelength ([1]; representative CFDs, Table I): 364 nm
- Quantum Yield ([1]; representative CFDs, Table I): 81.4%
- emission transition (pH) [2]: 3.27
- isobestic absorption point (pH) [2]: 3.35
- I418 nm/I445 nm ratio ([2]; acidic range): 0.7
- I418 nm/I445 nm ratio ([2]; basic range): 1.6
- Stokes shift ([2]; before increase (basic)): 67 nm
- emission λmax plateau ([2]; from pH 2.44): 445 nm
- excitation λmax plateau ([2]; from pH 2.44): 365 nm
- quenching of emission intensity at fixed 418 nm ([2]; from pH 4.5-11 to pH 1-3): roughly 2.25 fold
- emission λmax ([2]; high basicity to pH 4.84): 418 nm
- excitation λmax ([2]; high basicity to pH 4.84): 350 nm
- Stokes shift ([2]; in high acidity): 80 nm
- quenching of overall fluorescence ([2]; upon protonation of first carboxyl group): 1.37 fold
